Experimental data reported in patent US4778792A, “Use of 7-acyl benzoxazinones and their derivatives in treating atheromatous disorders” (Laboratories Negma, priority 1985, dated 1988).
Where a name gives a salt, the structure may show the parent alone. Read-outs that look alike come from different tables or passages of the source.

Assay: Normolipemic activity, lipid balance in normal or hypercholesterolemic mice
Format: in vivo
Settings: per os, 50 mg/kg daily for 15 days, with respect to a control group; for change in vivo at 50 mg/kg: Mus musculus, po, 360 h
Procedure: Activity of selected molecules by the Triton test in mice rendered hypercholesterolemic and normal mice: study of the lipid parameters, of the lipoprotein and apoprotein composition.
Preliminary study on the weight of the liver and histological examination of the hepatic tissue.
3.2 The normolipemic activity has also been established in OF normal mice or rendered hypercholesterolemic. The products tested were administered per os daily for 15 days at the dose of 50 mg/kg.
All the compounds were administered orally at the rate of 50 mg/kg.

[1] = read-out: CT (Total cholesterol) %
[2] = read-out: HDLC (Cholesterol fraction contained in the HDLs) %
[3] = read-out: HDLC/TC (ratio between the cholesterol contained in the HDLs and the total cholesterol) %

CC(C)OC(=O)C(C)(C)Oc1ccc(C(=O)c2ccc(Cl)cc2)cc1 [Fenofibrate, fenofibrate, reference compound]
change in vivo at 50 mg/kg [1]: -30% | change in vivo at 50 mg/kg [2]: -11% | change in vivo at 50 mg/kg [3]: 30% | change in vivo at 50 mg/kg (read-out: Phospho Lipids): 18% | change in vivo at 50 mg/kg (read-out: TG (Triglycerids) %): 24% | Liver weight / Body weight: +55%

CCCC(=O)c1ccc2c(c1)OC(C)(C)C(=O)N2C [MZ 86, 7-Butyryl 2,2,4-trimethyl benzoxazinone]
change in vivo at 50 mg/kg [1]: -38% | change in vivo at 50 mg/kg [2]: 18% | change in vivo at 50 mg/kg [3]: 44% | change in vivo at 50 mg/kg (read-out: Phospho Lipids): 0% | change in vivo at 50 mg/kg (read-out: TG (Triglycerids) %): -12% | Liver weight / Body weight: +2%

CCCC(=O)c1ccc2c(c1)OC(C)(C)C(=O)N2 [MZ 95, 7-Butyryl 2,2-dimethyl benzoxazinone]
change in vivo at 50 mg/kg [1]: -21% | change in vivo at 50 mg/kg [2]: 0% | change in vivo at 50 mg/kg [3]: 25% | change in vivo at 50 mg/kg (read-out: Phospho Lipids): 5% | change in vivo at 50 mg/kg (read-out: TG (Triglycerids) %): -5% | Liver weight / Body weight: +6%

CC1Oc2cc(C(=O)c3ccccc3)ccc2NC1=O (centres unmarked) [MZ 115, 7-Benzoyl 2-methyl benzoxazinone]
change in vivo at 50 mg/kg [1]: -32% | change in vivo at 50 mg/kg [2]: -5% | change in vivo at 50 mg/kg [3]: 17% | change in vivo at 50 mg/kg (read-out: Phospho Lipids): -9% | change in vivo at 50 mg/kg (read-out: TG (Triglycerids) %): 18% | Liver weight / Body weight: +9%

CN1C(=O)C(C)(C)Oc2cc(C(=O)c3ccccc3)ccc21 [MZ 119, 7-Benzoyl 2,2,4 trimethyl benzoxazinone]
change in vivo at 50 mg/kg [1]: -30% | change in vivo at 50 mg/kg [2]: -6% | change in vivo at 50 mg/kg [3]: 21% | change in vivo at 50 mg/kg (read-out: Phospho Lipids): 15% | change in vivo at 50 mg/kg (read-out: TG (Triglycerids) %): 21% | Liver weight / Body weight: +12%

CN1C(=O)C(C)(C)Oc2cc(C(=O)c3ccc(Cl)cc3)ccc21 [MZ 125, 7-(4-Chlorobenzoyl)2,2,4-trimethyl benzoxazinone]
change in vivo at 50 mg/kg [1]: -25% | change in vivo at 50 mg/kg [2]: 1% | change in vivo at 50 mg/kg [3]: 18% | change in vivo at 50 mg/kg (read-out: Phospho Lipids): 15% | change in vivo at 50 mg/kg (read-out: TG (Triglycerids) %): 19% | Liver weight / Body weight: +17%

CC1Oc2cc(C(=O)C=Cc3ccc(Cl)cc3)ccc2N(C)C1=O (centres unmarked) [MZ 134, 7(4-Chlorocinnamoyl)2,4 dimethyl benzoxazinone]
change in vivo at 50 mg/kg [2]: 5% | change in vivo at 50 mg/kg [3]: 10% | change in vivo at 50 mg/kg (read-out: Phospho Lipids): 11% | change in vivo at 50 mg/kg (read-out: TG (Triglycerids) %): -9% | Liver weight / Body weight: +5%

CN1C(=O)C(C)(C)Oc2cc(C(=O)CCCN3CCN(c4ccc(F)cc4)CC3)ccc21 [MZ 153, 7[4(4p-fluorophenylpiperazino)butyryl]2,2,4-trimethyl benzoxazinone]
change in vivo at 50 mg/kg [1]: -10% | change in vivo at 50 mg/kg [2]: 25% | change in vivo at 50 mg/kg [3]: 45% | change in vivo at 50 mg/kg (read-out: Phospho Lipids): 19% | change in vivo at 50 mg/kg (read-out: TG (Triglycerids) %): 18% | Liver weight / Body weight: +4%

CN1C(=O)C(C)(C)Oc2cc(C(=O)CCN3CCOCC3)ccc21 [NM 7, 7[3-morpholinopropionyl[2'2'4 trimethylbenzoxazinone, hydrochloride]
change in vivo at 50 mg/kg [1]: 2% | change in vivo at 50 mg/kg [2]: 5% | change in vivo at 50 mg/kg [3]: 14% | change in vivo at 50 mg/kg (read-out: Phospho Lipids): 5% | change in vivo at 50 mg/kg (read-out: TG (Triglycerids) %): 5% | Liver weight / Body weight: -10%

CN1C(=O)C(C)(C)Oc2cc(C(=O)CCN3CCN(c4cccc(C(F)(F)F)c4)CC3)ccc21 [NM 8, 3(4-Metatrifluoromethylphenylpiperazino)7-propionyl 2,2,4 trimethyl benzoxazinone, hydrochloride]
change in vivo at 50 mg/kg [1]: 8% | change in vivo at 50 mg/kg [2]: 10% | change in vivo at 50 mg/kg [3]: 11% | change in vivo at 50 mg/kg (read-out: Phospho Lipids): 8% | change in vivo at 50 mg/kg (read-out: TG (Triglycerids) %): 23% | Liver weight / Body weight: -15%

CCCC(=O)c1ccc2c(c1)OC(C)(C)C(=O)N2CCC(=O)O [NM 11, 7-Butyryl 4-β carboxyethyl 2,2-dimethyl benzoxazinone]
change in vivo at 50 mg/kg [1]: -37% | change in vivo at 50 mg/kg [2]: 7% | change in vivo at 50 mg/kg [3]: 43% | change in vivo at 50 mg/kg (read-out: Phospho Lipids): 16% | change in vivo at 50 mg/kg (read-out: TG (Triglycerids) %): -8% | Liver weight / Body weight: 0%
